The values below come from US20230043863A1, “HETEROAROMATIC DERIVATIVES FOR USE AS REGULATOR, PREPARATION METHOD THEREFOR AND USE THEREOF” (JIANGSU HANSOH PHARMACEUTICAL GROUP CO., LTD., priority 2018, published 2023).

The target in one experiment is JAK2 (Homo sapiens, UniProt O60674). As to the kind of experiment: JAK kinase activity inhibition, TR-FRET (JAK2). The format is biochemical. The following applies: TR-FRET kinase assay. Here is the method: (§1) Experimental objective: The objective of this test is to test the inhibitory effect of the compound on JAK kinase activity.
(§2) Experimental method: the fluorescence resonance energy transfer (TR-FRET) method was used to test the inhibitory effect of the compound on JAK kinase activity, and the half inhibitory concentration IC50 of the compound on JAK kinase activity was obtained.
(§3) Kinase reaction was carried out in a white 384-well plate (PerkinElmer). 1-5 μL of different concentrations of the compound diluted with DMSO and ddH2O was added into each well, and 1-5 μL of the corresponding solvent was added to the positive control wells, followed by addition of 0.1-20 nM JAK kinase solution diluted with 1-5 μL of kinase buffer (HEPES 50-250 mM, MgCl2 5-20 mM, etc.) was added to each well. 1-5 μL of kinase buffer was added to the negative control well. 1-5 μL of substrate mixture containing peptide substrate and ATP was added. The plate was incubated at room temperature for 0.5-5 hours. […], EDTA and detection solution containing labeled antibody was added, and then the plate was incubated at room temperature for another 1-24 hours. The fluorescence signal value at about 620 nm and 665 nm of each well was measured by BioTek Synergy H1 plate reader, and the inhibition rate was calculated by the fluorescence signal value. According to the inhibition rate of different concentrations, the IC50 of the compound was obtained by curve fitting.
(§4) The percentage inhibition data of the wells treated with the compound was calculated with the positive control wells (DMSO control wells) and negative control wells (no kinase added) on the plate {% inhibition rate=100-[(test compound value-negative control value)]/(Positive control value-negative control value)×100}. IC50 value was calculated by using GraphPad prism to fit the data of different concentrations and corresponding percentage inhibition rates to a 4-parameter non-linear logic formula.
(In general: Time-resolved FRET reads energy transfer from a long-lived donor to a nearby acceptor.)

A further experiment addresses JAK1 (Homo sapiens, UniProt P23458). Briefly: JAK kinase activity inhibition, TR-FRET (JAK1). The format is biochemical. The following applies: TR-FRET kinase assay. In short, it runs like this:
(§5)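 Steps: compound dilutions added; JAK kinase (0.1-20 nM) in HEPES/MgCl2 buffer added; peptide substrate and ATP mix started the reaction, 0.5-5 h at room temperature; EDTA and labeled antibody added, 1-24 h further. IC50 derived from 620/665 nm signals by four-parameter nonlinear fitting.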

A further experiment addresses TYK2 (Homo sapiens, UniProt P29597). As to the kind of experiment: JAK kinase activity inhibition, TR-FRET (TYK2). Format: biochemical. Conditions: TR-FRET kinase assay. A digest of the protocol:
as §5

The target of a further experiment is T1, JAK3 (Homo sapiens, UniProt P52333).
T1 sequence (P52333 1-1124): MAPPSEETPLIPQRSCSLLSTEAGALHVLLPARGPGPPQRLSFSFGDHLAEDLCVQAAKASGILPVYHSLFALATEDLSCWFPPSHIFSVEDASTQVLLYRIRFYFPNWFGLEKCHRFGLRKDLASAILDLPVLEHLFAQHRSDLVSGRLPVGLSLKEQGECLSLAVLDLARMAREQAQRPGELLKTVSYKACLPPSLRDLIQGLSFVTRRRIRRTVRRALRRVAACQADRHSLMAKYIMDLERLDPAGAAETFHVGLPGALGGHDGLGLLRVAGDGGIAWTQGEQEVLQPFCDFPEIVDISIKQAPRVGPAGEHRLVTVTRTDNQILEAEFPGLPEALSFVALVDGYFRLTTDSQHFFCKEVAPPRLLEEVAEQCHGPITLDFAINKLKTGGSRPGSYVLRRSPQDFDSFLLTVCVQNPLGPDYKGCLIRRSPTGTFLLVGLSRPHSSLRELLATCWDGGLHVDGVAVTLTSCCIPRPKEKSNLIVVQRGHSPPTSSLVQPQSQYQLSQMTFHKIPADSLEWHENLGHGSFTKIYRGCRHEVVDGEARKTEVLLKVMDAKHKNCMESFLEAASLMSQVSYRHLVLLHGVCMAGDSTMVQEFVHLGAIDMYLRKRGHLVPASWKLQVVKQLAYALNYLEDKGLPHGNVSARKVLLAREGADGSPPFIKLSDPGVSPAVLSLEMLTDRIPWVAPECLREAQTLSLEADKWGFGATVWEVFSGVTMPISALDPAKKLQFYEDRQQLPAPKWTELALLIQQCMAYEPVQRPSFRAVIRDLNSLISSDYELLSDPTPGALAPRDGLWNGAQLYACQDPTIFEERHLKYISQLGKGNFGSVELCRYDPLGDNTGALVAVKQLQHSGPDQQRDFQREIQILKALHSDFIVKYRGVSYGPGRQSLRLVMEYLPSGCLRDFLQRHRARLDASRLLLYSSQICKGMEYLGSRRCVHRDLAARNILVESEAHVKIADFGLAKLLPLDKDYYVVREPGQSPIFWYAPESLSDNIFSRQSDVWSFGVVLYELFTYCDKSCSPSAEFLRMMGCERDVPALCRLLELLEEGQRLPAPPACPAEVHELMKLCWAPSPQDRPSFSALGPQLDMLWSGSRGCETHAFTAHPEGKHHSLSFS
As to the kind of experiment: JAK kinase activity inhibition, TR-FRET (JAK3). The format is biochemical. Conditions: TR-FRET kinase assay. How it is done:
as §1, §2, §3, §4

Experiment [1] concerns JAK-STAT signal pathway of U266 cells. As to the kind of experiment: Inhibition of cellular JAK-STAT signal pathway (STAT3 phosphorylation) in U266 cells. The format is cell-based, human. Conditions: Homo sapiens, U-266, INF-a 1000 U/mL stimulation. In short, it runs like this: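 U266 cells (100-300 K/well) preincubated 2 h at room temperature with serially diluted compound, then stimulated 15 min with IFN-α at 1000 U/mL final. After lysis, STAT3 phosphorylation read by LANCE Ultra TR-FRET (Eu antibody 0.5 nM, ULight antibody 5 nM, overnight) at 665 nm; IC50 from 4-parameter fit of inhibition versus DMSO and negative controls.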

Experiment [2] concerns C57BL/6 mouse colitis model induced by DSS. As to the kind of experiment: C57BL/6 mouse colitis model induced by DSS, daily disease index. The format is in vivo. The following applies: po, 216 h, 10 mg/kg p.o. BID, Day 0-9, vs vehicle group, read-out: reduction ratio of DAI AUC. How it is done:
To evaluate the drug efficacy of the embodiment compound on the C57BL/6 mouse colitis model induced by DSS (dextran sulfate sodium).
According to the weight of the animal, BioBook software was used to randomly group the animals on day −1 to ensure that the weight values of each group of animals were similar to reduce deviation, and the grouping and dosing regimen are shown in the following Table.
Drinking water containing DSS: an appropriate amount of DSS powder was dissolved in the autoclaved drinking water to prepare a 2% DSS solution.
On day −1, the animals were equally divided into 12 groups with 10 animals in each group. (Refer to Table 1 for specific grouping scheme)
From 9:00 on day 0 to 9:00 on day 6, the mice in groups 2 to 9 were given 2% DSS aqueous solution for 6 days (from day 0 to day 6), after which the mice were allowed to freely drink normal water for 3 days (from 9:00 on day 6 to before necropsy on day 9). The day of modeling was counted as day 0. The DSS aqueous solution was wrapped in tin foil to protect it from light. The DSS aqueous solution was replaced every 2 days.
The mice in group 1 are allowed to drink normal water freely for 9 days (from 9:00 on day 0 to before necropsy on day 9).
The recording frequency was once a day, and 4 levels were rated according to the following standards:
Bloody stool (0: negative; 4: positive);
Stool score (0: normal; 2: loose stool; 4: diarrhea)
Daily Disease Index (DAI) was obtained by dividing the sum the scores of the above 3 parts by 3. DAI-time (day) curve based on the daily DAI score was plotted, and the peak area (AUC) under the curve was calculated. The reduction ratio of DAI AUC was calculated by comparing the administration group with the vehicle group, with a calculation formula of (DAI AUCadministration group-DAI AUCvehicle)/DAI AUCVehicle×100%

TYK2, sequence (P29597 whole entry): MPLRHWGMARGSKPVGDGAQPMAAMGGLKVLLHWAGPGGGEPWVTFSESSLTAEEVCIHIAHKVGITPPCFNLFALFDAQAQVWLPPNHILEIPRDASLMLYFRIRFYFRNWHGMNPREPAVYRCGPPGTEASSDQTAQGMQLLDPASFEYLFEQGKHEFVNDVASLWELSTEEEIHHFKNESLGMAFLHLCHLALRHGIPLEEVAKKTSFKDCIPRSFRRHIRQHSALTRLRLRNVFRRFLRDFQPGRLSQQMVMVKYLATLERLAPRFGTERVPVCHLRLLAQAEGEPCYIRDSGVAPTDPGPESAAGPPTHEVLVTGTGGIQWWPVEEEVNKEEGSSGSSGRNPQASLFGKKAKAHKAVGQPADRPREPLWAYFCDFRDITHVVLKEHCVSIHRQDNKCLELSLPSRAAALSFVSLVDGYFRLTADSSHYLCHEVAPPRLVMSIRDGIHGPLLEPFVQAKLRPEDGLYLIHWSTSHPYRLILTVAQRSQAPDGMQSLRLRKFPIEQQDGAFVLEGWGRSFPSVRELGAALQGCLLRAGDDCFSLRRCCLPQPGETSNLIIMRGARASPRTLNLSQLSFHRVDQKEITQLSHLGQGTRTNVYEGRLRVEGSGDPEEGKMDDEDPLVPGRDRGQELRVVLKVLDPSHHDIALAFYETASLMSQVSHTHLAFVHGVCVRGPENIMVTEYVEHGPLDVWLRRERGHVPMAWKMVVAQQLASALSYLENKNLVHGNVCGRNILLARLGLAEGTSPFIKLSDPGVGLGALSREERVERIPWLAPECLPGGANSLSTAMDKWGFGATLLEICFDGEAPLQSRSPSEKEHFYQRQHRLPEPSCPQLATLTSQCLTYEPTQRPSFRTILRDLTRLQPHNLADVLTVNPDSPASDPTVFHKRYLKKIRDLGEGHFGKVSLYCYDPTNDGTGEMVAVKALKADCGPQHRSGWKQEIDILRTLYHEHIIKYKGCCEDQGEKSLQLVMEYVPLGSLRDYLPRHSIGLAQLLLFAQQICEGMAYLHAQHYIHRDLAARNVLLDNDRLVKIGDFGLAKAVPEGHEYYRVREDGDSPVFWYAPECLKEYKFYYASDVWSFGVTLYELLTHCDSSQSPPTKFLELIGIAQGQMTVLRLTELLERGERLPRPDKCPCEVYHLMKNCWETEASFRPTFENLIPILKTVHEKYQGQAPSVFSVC
JAK2, sequence (O60674 whole entry): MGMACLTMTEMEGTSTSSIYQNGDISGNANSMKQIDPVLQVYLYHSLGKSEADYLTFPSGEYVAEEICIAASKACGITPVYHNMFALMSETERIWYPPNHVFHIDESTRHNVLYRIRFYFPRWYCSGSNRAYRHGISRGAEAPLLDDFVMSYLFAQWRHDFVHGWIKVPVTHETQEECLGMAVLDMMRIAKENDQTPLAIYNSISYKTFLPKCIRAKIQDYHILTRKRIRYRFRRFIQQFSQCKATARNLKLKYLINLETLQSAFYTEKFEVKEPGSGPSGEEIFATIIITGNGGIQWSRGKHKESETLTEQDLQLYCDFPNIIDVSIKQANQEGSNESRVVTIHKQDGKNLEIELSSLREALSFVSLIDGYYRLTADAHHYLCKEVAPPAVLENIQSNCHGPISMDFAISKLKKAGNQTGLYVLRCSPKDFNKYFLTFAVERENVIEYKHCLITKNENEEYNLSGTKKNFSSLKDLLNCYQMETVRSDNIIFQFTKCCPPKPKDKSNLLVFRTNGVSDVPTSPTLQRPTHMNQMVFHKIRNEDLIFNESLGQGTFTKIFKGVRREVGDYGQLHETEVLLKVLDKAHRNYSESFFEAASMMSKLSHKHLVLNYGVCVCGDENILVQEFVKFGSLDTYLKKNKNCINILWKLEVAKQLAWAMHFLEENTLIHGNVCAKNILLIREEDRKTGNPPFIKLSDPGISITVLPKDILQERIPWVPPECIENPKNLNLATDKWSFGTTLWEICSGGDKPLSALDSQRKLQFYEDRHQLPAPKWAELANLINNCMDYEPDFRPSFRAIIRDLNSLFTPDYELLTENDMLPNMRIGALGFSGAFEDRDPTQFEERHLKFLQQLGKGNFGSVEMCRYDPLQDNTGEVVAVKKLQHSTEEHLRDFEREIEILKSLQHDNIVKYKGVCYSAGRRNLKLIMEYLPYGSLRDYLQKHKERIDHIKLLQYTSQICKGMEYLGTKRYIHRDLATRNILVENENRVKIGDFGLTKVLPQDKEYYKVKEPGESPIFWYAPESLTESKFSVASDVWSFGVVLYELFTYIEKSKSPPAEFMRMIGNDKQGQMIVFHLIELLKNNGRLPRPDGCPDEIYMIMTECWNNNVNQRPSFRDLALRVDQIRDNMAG
JAK1, sequence (P23458 whole entry): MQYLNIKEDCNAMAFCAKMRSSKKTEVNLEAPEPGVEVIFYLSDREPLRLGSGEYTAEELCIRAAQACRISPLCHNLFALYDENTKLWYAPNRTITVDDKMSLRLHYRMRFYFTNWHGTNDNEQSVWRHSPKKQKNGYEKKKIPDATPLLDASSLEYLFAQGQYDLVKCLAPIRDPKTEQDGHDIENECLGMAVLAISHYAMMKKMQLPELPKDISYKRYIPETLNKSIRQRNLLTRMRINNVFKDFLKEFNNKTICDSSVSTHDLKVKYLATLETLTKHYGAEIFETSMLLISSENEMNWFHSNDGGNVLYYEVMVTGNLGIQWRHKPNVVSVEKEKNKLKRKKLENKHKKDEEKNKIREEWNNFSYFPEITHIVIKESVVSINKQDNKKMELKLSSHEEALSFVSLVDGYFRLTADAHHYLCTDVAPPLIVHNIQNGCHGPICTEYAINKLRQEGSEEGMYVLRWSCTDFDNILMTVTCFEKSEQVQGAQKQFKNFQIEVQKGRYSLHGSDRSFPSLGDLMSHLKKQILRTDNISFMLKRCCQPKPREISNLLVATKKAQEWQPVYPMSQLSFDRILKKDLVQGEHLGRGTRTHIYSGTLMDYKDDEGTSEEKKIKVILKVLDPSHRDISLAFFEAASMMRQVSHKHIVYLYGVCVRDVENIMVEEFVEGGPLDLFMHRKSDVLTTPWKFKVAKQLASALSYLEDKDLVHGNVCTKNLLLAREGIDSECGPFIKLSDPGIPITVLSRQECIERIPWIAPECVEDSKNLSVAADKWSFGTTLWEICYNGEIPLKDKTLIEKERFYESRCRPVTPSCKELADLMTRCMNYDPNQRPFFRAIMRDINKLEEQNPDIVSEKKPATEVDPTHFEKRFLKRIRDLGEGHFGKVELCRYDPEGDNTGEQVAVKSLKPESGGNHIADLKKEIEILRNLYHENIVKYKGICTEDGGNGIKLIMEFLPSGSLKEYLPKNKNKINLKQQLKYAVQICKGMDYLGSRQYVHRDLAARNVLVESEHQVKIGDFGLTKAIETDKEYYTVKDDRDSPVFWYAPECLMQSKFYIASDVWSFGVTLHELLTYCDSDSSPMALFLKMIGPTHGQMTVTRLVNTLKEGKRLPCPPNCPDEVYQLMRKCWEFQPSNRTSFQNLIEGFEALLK

For the molecule `Cc1cc(Nc2nc(N[C@@H]3C[C@H]4CC[C@@H](C3)N4S(=O)(=O)c3cccnc3)nc3sccc23)n[nH]1` [Embodiment 265, N^4-(5-methyl-1H-pyrazol-3-yl)-N^2-((3-exo)-8(pyridin-3ylsulfonyl)-8-azabicyclo[3.2.1]oct-3-yl)thieno[2,3-d]pyrimidin-2,4-diamine], the IC50 (usually the concentration that gives 50% inhibition) amounted to 1.81 nM on JAK2; 1.29 nM at JAK1; 1 nM on TYK2; 170 nM at JAK3; 20.4 nM in experiment [1].
On to `Cc1cc(Nc2nc(N[C@@H]3C[C@H]4CC[C@@H](C3)N4CCC#N)nc3sccc23)n[nH]1` [Embodiment 62, 3-((3-exo)-3-((4-((5-methyl-1H-pyrazol-3-yl)amino)thieno[2,3-d]pyrimidin-2-yl)amino)-8-azabicyclo[3.2.1]oct-8-yl)propionitrile], for which the IC50 came out at 0.08 nM on JAK1, 0.17 nM on TYK2 and 1.9 nM in experiment [1]. Moreover, the change in vivo at 10 mg/kg in experiment [2] is -32.2%.
Turning to `Cc1cc(Nc2nc(N[C@@H]3C[C@H]4CCC[C@@H](C3)N4S(=O)(=O)N3CC(C#N)C3)nc3ccccc23)n[nH]1` [Embodiment 217], the concentration for half-maximal inhibition (IC50) amounted to 1.61 nM on JAK2; 0.04 nM on JAK1; 0.1 nM on TYK2; 1.92 nM at JAK3; 36.7 nM in experiment [1].
With `COc1ccc2c(Nc3cc(C)[nH]n3)nc(N(C)[C@@H]3C[C@H]4CC[C@@H](C3)N4S(=O)(=O)N3CC(C#N)C3)nc2c1` [Embodiment 218, 1-(((3-exo)-3-((7-methoxyl-4-((5-methyl-1H-pyrazol-3-yl)amino)quinazolin-2-yl)(methyl)amino)-8-azabicyclo[3.2.1]oct-8-yl)sulfonyl)azetindin-3-formonitrile], the IC50 stood at 1.05 nM on JAK2; 0.27 nM on JAK1; 0.4 nM on TYK2; 19.6 nM at JAK3; 61.5 nM in experiment [1].
In the case of `Cc1cc(Nc2nc(N[C@@H]3C[C@H]4CC[C@@H](C3)N4CCC#N)nc3cc[nH]c23)n[nH]1` [Embodiment 40, 3-((3-exo)-3-((4-((5-methyl-1H-pyrazol-3-yl)amino)-5H-pyrrolo[3,2-d]pyrimidin-2-yl)amino)-8-azabicyclo[3.2.1]oct-8-yl)pronionitrile], the half-inhibitory concentration (IC50) at JAK2 was determined as 0.77 nM; at JAK1, 0.83 nM; at TYK2, 1.01 nM; on JAK3, 8.78 nM; in experiment [1], 17.4 nM.
For the molecule `Cc1cc(Nc2nc(N[C@@H]3C[C@H]4CCC[C@@H](C3)N4C(=O)CN(C)C)nc3sccc23)n[nH]1` [Embodiment 242, 2-(dimethylamine)-1-((3-exo)-3-((4-((5-methyl-1H-pyrazol-3-yl)amino)thieno[2,3-d]pyrimidin-2-yl)amino)-9-azabicyclo[3.3.1]non-9-yl)ethane-1-one], the IC50 on JAK2 turned out to be 0.85 nM; at JAK1, 0.21 nM; on TYK2, 0.89 nM; on JAK3, 6.58 nM; in experiment [1], 0.24 nM.
